pIC50: −log10 of the molar value.
System: 379773-124-R-J2-PDC spheroid viability
Experiment: Anticancer human tumor 379773-124-R-J2-PDC patient-derived endometrial carcinoma cell line growth inhibition [POLQ]
Settings: spheroids with HUVEC and MSC; for pIC50: curve of first compound; for viability, T/C: stronger effect = lower value
Outline: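 PDC + HUVEC + MSC complex spheroids; POLQ inhibitors ± partner drugs; top conc. at/near clinical Cmax, else 10 microM (SN-38 1 microM), half-log dilutions; 37 degrees C, 5% CO2.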

[1] = second compound 0.0316 µM, first compound 0.0316 µM
[2] = second compound 0.0316 µM, first compound 0.1 µM
[3] = second compound 0.1 µM, first compound 0.0316 µM
[4] = second compound 0.1 µM, first compound 0.1 µM
[5] = second compound 0.316 µM, first compound 0.0316 µM
[6] = second compound 0.316 µM, first compound 0.1 µM
[7] = second compound 1 µM, first compound 0.0316 µM
[8] = second compound 1 µM, first compound 0.1 µM
[9] = second compound 3.16 µM, first compound 0.0316 µM
[10] = second compound 3.16 µM, first compound 0.1 µM
[11] = second compound 10 µM, first compound 0.0316 µM
[12] = second compound 10 µM, first compound 0.1 µM
[13] = second compound 0.0316 µM, first compound 0.316 µM
[14] = second compound 0.0316 µM, first compound 1 µM
[15] = second compound 0.0316 µM, first compound 3.16 µM
[16] = second compound 0.0316 µM, first compound 10 µM
[17] = second compound 0.1 µM, first compound 0.316 µM
[18] = second compound 0.1 µM, first compound 1 µM
[19] = second compound 0.1 µM, first compound 3.16 µM
[20] = second compound 0.1 µM, first compound 10 µM
[21] = second compound 0.316 µM, first compound 0.316 µM
[22] = second compound 0.316 µM, first compound 1 µM
[23] = second compound 0.316 µM, first compound 3.16 µM
[24] = second compound 0.316 µM, first compound 10 µM
[25] = second compound 1 µM, first compound 0.316 µM
[26] = second compound 1 µM, first compound 1 µM
[27] = second compound 1 µM, first compound 3.16 µM
[28] = second compound 1 µM, first compound 10 µM
[29] = second compound 3.16 µM, first compound 0.316 µM
[30] = second compound 3.16 µM, first compound 1 µM
[31] = second compound 3.16 µM, first compound 3.16 µM
[32] = second compound 3.16 µM, first compound 10 µM
[33] = second compound 10 µM, first compound 0.316 µM
[34] = second compound 10 µM, first compound 1 µM
[35] = second compound 10 µM, first compound 3.16 µM
[36] = second compound 10 µM, first compound 10 µM
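Note: spheroids exposed to drugs for seven days before readout.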
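Throughout, for viability, T/C: percent viability relative to DMSO vehicle control taken as 100%.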

## Cn1ncnc1[C@H]1c2n[nH]c(=O)c3cc(F)cc(c23)N[C@@H]1c1ccc(F)cc1 + Nc1ccc(C#CCN(C(=O)Cc2ncc(C(F)(F)F)cc2C(F)(F)F)c2ccc(F)cc2)nn1
Second compound 0.0316 µM
  pIC50: < 7.00
Second compound 0.1 µM
  pIC50: < 7.00
Second compound 0.316 µM
  pIC50: < 7.00
Second compound 1 µM
  pIC50: < 7.00
Second compound 3.16 µM
  pIC50: < 7.00
Second compound 10 µM
  pIC50: < 7.00
Second compound 0.0316 µM, first compound 0.000316 µM
  viability, T/C: 103%
Second compound 0.0316 µM, first compound 0.001 µM
  viability, T/C: 86.2%
Second compound 0.0316 µM, first compound 0.00316 µM
  viability, T/C: 94%
Second compound 0.0316 µM, first compound 0.01 µM
  viability, T/C: 85.8%
[1]
  viability, T/C: 68.6%
[2]
  viability, T/C: 53.7%
Second compound 0.1 µM, first compound 0.000316 µM
  viability, T/C: 89.8%
Second compound 0.1 µM, first compound 0.001 µM
  viability, T/C: 94.6%
Second compound 0.1 µM, first compound 0.00316 µM
  viability, T/C: 99.3%
Second compound 0.1 µM, first compound 0.01 µM
  viability, T/C: 91.9%
[3]
  viability, T/C: 79.1%
[4]
  viability, T/C: 55.8%
Second compound 0.316 µM, first compound 0.000316 µM
  viability, T/C: 100%
Second compound 0.316 µM, first compound 0.001 µM
  viability, T/C: 102%
Second compound 0.316 µM, first compound 0.00316 µM
  viability, T/C: 93.6%
Second compound 0.316 µM, first compound 0.01 µM
  viability, T/C: 86.3%
[5]
  viability, T/C: 72.5%
[6]
  viability, T/C: 64.2%
Second compound 1 µM, first compound 0.000316 µM
  viability, T/C: 97.7%
Second compound 1 µM, first compound 0.001 µM
  viability, T/C: 90.1%
Second compound 1 µM, first compound 0.00316 µM
  viability, T/C: 99.1%
Second compound 1 µM, first compound 0.01 µM
  viability, T/C: 86.6%
[7]
  viability, T/C: 80.4%
[8]
  viability, T/C: 55.1%
Second compound 3.16 µM, first compound 0.000316 µM
  viability, T/C: 113%
Second compound 3.16 µM, first compound 0.001 µM
  viability, T/C: 91.5%
Second compound 3.16 µM, first compound 0.00316 µM
  viability, T/C: 98%
Second compound 3.16 µM, first compound 0.01 µM
  viability, T/C: 102%
[9]
  viability, T/C: 67.5%
[10]
  viability, T/C: 58.2%
Second compound 10 µM, first compound 0.000316 µM
  viability, T/C: 87.7%
Second compound 10 µM, first compound 0.001 µM
  viability, T/C: 90.6%
Second compound 10 µM, first compound 0.00316 µM
  viability, T/C: 86.3%
Second compound 10 µM, first compound 0.01 µM
  viability, T/C: 84%
[11]
  viability, T/C: 78.8%
[12]
  viability, T/C: 56.5%

## Nc1ccn(C2OC(CO)C(O)C2(F)F)c(=O)n1 (stereo unspecified) + Nc1ccc(C#CCN(C(=O)Cc2ncc(C(F)(F)F)cc2C(F)(F)F)c2ccc(F)cc2)nn1
Second compound 0.0316 µM
  pIC50: > 7.50
Second compound 0.1 µM
  pIC50: > 7.50
Second compound 0.316 µM
  pIC50: > 7.50
Second compound 1 µM
  pIC50: > 7.50
Second compound 3.16 µM
  pIC50: 7.38
Second compound 10 µM
  pIC50: 7.14
[1]
  viability, T/C: 15.1%
[2]
  viability, T/C: 10.6%
[13]
  viability, T/C: 11.7%
[14]
  viability, T/C: 13.6%
[15]
  viability, T/C: 12.6%
[16]
  viability, T/C: 9.91%
[3]
  viability, T/C: 19.5%
[4]
  viability, T/C: 11.3%
[17]
  viability, T/C: 11.3%
[18]
  viability, T/C: 11.7%
[19]
  viability, T/C: 12.6%
[20]
  viability, T/C: 11.1%
[5]
  viability, T/C: 24%
[6]
  viability, T/C: 12.2%
[21]
  viability, T/C: 10.3%
[22]
  viability, T/C: 13.1%
[23]
  viability, T/C: 12%
[24]
  viability, T/C: 12%
[7]
  viability, T/C: 36.3%
[8]
  viability, T/C: 11.9%
[25]
  viability, T/C: 10.3%
[26]
  viability, T/C: 9.8%
[27]
  viability, T/C: 10.8%
[28]
  viability, T/C: 12.4%
[9]
  viability, T/C: 61.2%
[10]
  viability, T/C: 15.9%
[29]
  viability, T/C: 10.5%
[30]
  viability, T/C: 10.6%
[31]
  viability, T/C: 9.92%
[32]
  viability, T/C: 10.9%
[11]
  viability, T/C: 96.1%
[12]
  viability, T/C: 31.3%
[33]
  viability, T/C: 12.7%
[34]
  viability, T/C: 9.85%
[35]
  viability, T/C: 10.6%
[36]
  viability, T/C: 9.44%

## O=c1[nH]cc(F)c(=O)[nH]1 + Nc1ccc(C#CCN(C(=O)Cc2ncc(C(F)(F)F)cc2C(F)(F)F)c2ccc(F)cc2)nn1
Second compound 0.0316 µM
  pIC50: < 5.00
Second compound 0.1 µM
  pIC50: < 5.00
Second compound 0.316 µM
  pIC50: < 5.00
Second compound 1 µM
  pIC50: < 5.00
Second compound 3.16 µM
  pIC50: < 5.00
Second compound 10 µM
  pIC50: < 5.00
[1]
  viability, T/C: 93.1%
[2]
  viability, T/C: 93%
[13]
  viability, T/C: 99.6%
[14]
  viability, T/C: 85.2%
[15]
  viability, T/C: 78.1%
[16]
  viability, T/C: 55.7%
[3]
  viability, T/C: 89.2%
[4]
  viability, T/C: 98.1%
[17]
  viability, T/C: 95.1%
[18]
  viability, T/C: 80.4%
[19]
  viability, T/C: 78.8%
[20]
  viability, T/C: 59.6%
[5]
  viability, T/C: 96.1%
[6]
  viability, T/C: 98.1%
[21]
  viability, T/C: 98.2%
[22]
  viability, T/C: 94.7%
[23]
  viability, T/C: 74.4%
[24]
  viability, T/C: 62%
[7]
  viability, T/C: 92.3%
[8]
  viability, T/C: 85.3%
[25]
  viability, T/C: 95.3%
[26]
  viability, T/C: 87.2%
[27]
  viability, T/C: 75.9%
[28]
  viability, T/C: 51.3%
[9]
  viability, T/C: 94.1%
[10]
  viability, T/C: 83%
[29]
  viability, T/C: 91.3%
[30]
  viability, T/C: 82.4%
[31]
  viability, T/C: 74.1%
[32]
  viability, T/C: 57.7%
[11]
  viability, T/C: 87.4%
[12]
  viability, T/C: 88.2%
[33]
  viability, T/C: 93.5%
[34]
  viability, T/C: 90.2%
[35]
  viability, T/C: 63.1%
[36]
  viability, T/C: 57.6%

From PubChem BioAssay AID1963848 (Molecular Pharmacology Branch, DTP, NCI, 2024)
